TGI data for four compounds are collected here from PubChem BioAssay (NCI).

The structures appear in SMILES notation.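 Each compound was tested at five concentrations against cells in 96-well plates for 48 hours. TGI marks complete inhibition of growth.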

One assay concerns NCI-H23 lung. The assay is described as follows: NCI tumour cell line growth inhibition, 48 h.
With `CC(=O)OCC1OC(N2C(c3ccccc3)=CC(c3cccs3)C(C#N)=C2S)C(OC(C)=O)C(OC(C)=O)C1OC(C)=O` (stereo not given), the TGI was greater than 100 µM.

`Nn1c(C23CC4CC(CC(C4)C2)C3)n[nH]c1=S` had a TGI greater than 100 µM.

As for `Cc1cn(C2CC(OC(=O)c3ccc(Cl)cc3)C(COC(=O)c3ccc(Cl)cc3)O2)c(=O)[nH]c1=O` (stereo not given), the TGI is greater than 100 µM.

In another assay the test system is NCI-H460 lung. The assay is described as follows: NCI tumour cell line growth inhibition, 48 h.
In turn, `S=C(N/N=C/c1ccccn1)N1CCCCC1` showed a TGI of 0.457 µM.

Consider `CC(=O)OCC1OC(N2C(c3ccccc3)=CC(c3cccs3)C(C#N)=C2S)C(OC(C)=O)C(OC(C)=O)C1OC(C)=O` (stereo not given), for which the TGI is greater than 100 µM.

Turning to `Nn1c(C23CC4CC(CC(C4)C2)C3)n[nH]c1=S`, the TGI is greater than 100 µM.

`Cc1cn(C2CC(OC(=O)c3ccc(Cl)cc3)C(COC(=O)c3ccc(Cl)cc3)O2)c(=O)[nH]c1=O` (stereo not given): the TGI is greater than 100 µM.

The subject of another assay is NCI-H522 lung. The assay is described as follows: NCI tumour cell line growth inhibition, 48 h.
The compound `S=C(N/N=C/c1ccccn1)N1CCCCC1` gave a TGI of 25.7 µM.

In the case of `Nn1c(C23CC4CC(CC(C4)C2)C3)n[nH]c1=S`, the TGI was greater than 100 µM.

As for `Cc1cn(C2CC(OC(=O)c3ccc(Cl)cc3)C(COC(=O)c3ccc(Cl)cc3)O2)c(=O)[nH]c1=O` (stereo not given), the TGI was greater than 100 µM.

Another assay deals with NCI/ADR-RES ovarian. In words: NCI tumour cell line growth inhibition, 48 h.
Compound `S=C(N/N=C/c1ccccn1)N1CCCCC1` showed a TGI of less than 0.0382 µM.

Compound `CC(=O)OCC1OC(N2C(c3ccccc3)=CC(c3cccs3)C(C#N)=C2S)C(OC(C)=O)C(OC(C)=O)C1OC(C)=O` (stereo not given) gave a TGI greater than 100 µM.

Take `Nn1c(C23CC4CC(CC(C4)C2)C3)n[nH]c1=S`: the TGI is greater than 100 µM.

`Cc1cn(C2CC(OC(=O)c3ccc(Cl)cc3)C(COC(=O)c3ccc(Cl)cc3)O2)c(=O)[nH]c1=O` (stereo not given) registered a TGI greater than 100 µM.

The subject of the next assay is OVCAR-3 ovarian. In words: NCI tumour cell line growth inhibition, 48 h.
As for `S=C(N/N=C/c1ccccn1)N1CCCCC1`, the TGI came out at 26.4 µM.

Regarding `CC(=O)OCC1OC(N2C(c3ccccc3)=CC(c3cccs3)C(C#N)=C2S)C(OC(C)=O)C(OC(C)=O)C1OC(C)=O` (stereo not given), the TGI was greater than 100 µM.

Regarding `Nn1c(C23CC4CC(CC(C4)C2)C3)n[nH]c1=S`, the TGI is greater than 100 µM.

In turn, `Cc1cn(C2CC(OC(=O)c3ccc(Cl)cc3)C(COC(=O)c3ccc(Cl)cc3)O2)c(=O)[nH]c1=O` (stereo not given) showed a TGI greater than 100 µM.

In another assay the test system is OVCAR-4 ovarian. In words: NCI tumour cell line growth inhibition, 48 h.
In the case of `S=C(N/N=C/c1ccccn1)N1CCCCC1`, the TGI is greater than 24.1 µM.

In turn, `Nn1c(C23CC4CC(CC(C4)C2)C3)n[nH]c1=S` came in with a TGI greater than 100 µM.

For `Cc1cn(C2CC(OC(=O)c3ccc(Cl)cc3)C(COC(=O)c3ccc(Cl)cc3)O2)c(=O)[nH]c1=O` (stereo not given), the TGI is greater than 100 µM.

A further assay has as its system OVCAR-5 ovarian. In words: NCI tumour cell line growth inhibition, 48 h.
With `S=C(N/N=C/c1ccccn1)N1CCCCC1`, the TGI was greater than 100 µM.

Take `CC(=O)OCC1OC(N2C(c3ccccc3)=CC(c3cccs3)C(C#N)=C2S)C(OC(C)=O)C(OC(C)=O)C1OC(C)=O` (stereo not given): the TGI was greater than 100 µM.

As for `Nn1c(C23CC4CC(CC(C4)C2)C3)n[nH]c1=S`, the TGI was greater than 100 µM.

`Cc1cn(C2CC(OC(=O)c3ccc(Cl)cc3)C(COC(=O)c3ccc(Cl)cc3)O2)c(=O)[nH]c1=O` (stereo not given) displayed a TGI greater than 100 µM.

For the next assay, the system named is OVCAR-8 ovarian. The assay is described as follows: NCI tumour cell line growth inhibition, 48 h.
As for `S=C(N/N=C/c1ccccn1)N1CCCCC1`, the TGI was greater than 65.6 µM.

`Cc1cn(C2CC(OC(=O)c3ccc(Cl)cc3)C(COC(=O)c3ccc(Cl)cc3)O2)c(=O)[nH]c1=O` (stereo not given) came in with a TGI greater than 100 µM.

The subject of the next assay is PC-3 prostate. In words: NCI tumour cell line growth inhibition, 48 h.
As for `S=C(N/N=C/c1ccccn1)N1CCCCC1`, the TGI is greater than 100 µM.

For `CC(=O)OCC1OC(N2C(c3ccccc3)=CC(c3cccs3)C(C#N)=C2S)C(OC(C)=O)C(OC(C)=O)C1OC(C)=O` (stereo not given), the TGI was greater than 100 µM.

In turn, `Nn1c(C23CC4CC(CC(C4)C2)C3)n[nH]c1=S` had a TGI greater than 100 µM.

Regarding `Cc1cn(C2CC(OC(=O)c3ccc(Cl)cc3)C(COC(=O)c3ccc(Cl)cc3)O2)c(=O)[nH]c1=O` (stereo not given), the TGI was greater than 100 µM.

The test system of another assay is RPMI-8226 leukemia. In words: NCI tumour cell line growth inhibition, 48 h.
The compound `S=C(N/N=C/c1ccccn1)N1CCCCC1` registered a TGI of 1.68 µM.

For the compound `Nn1c(C23CC4CC(CC(C4)C2)C3)n[nH]c1=S`, the TGI was greater than 100 µM.

On to `Cc1cn(C2CC(OC(=O)c3ccc(Cl)cc3)C(COC(=O)c3ccc(Cl)cc3)O2)c(=O)[nH]c1=O` (stereo not given), for which the TGI was greater than 100 µM.

A further assay has as its system RXF 393 renal. In words: NCI tumour cell line growth inhibition, 48 h.
For the compound `S=C(N/N=C/c1ccccn1)N1CCCCC1`, the TGI is 3.94 µM.

For the compound `CC(=O)OCC1OC(N2C(c3ccccc3)=CC(c3cccs3)C(C#N)=C2S)C(OC(C)=O)C(OC(C)=O)C1OC(C)=O` (stereo not given), the TGI was greater than 100 µM.

Compound `Nn1c(C23CC4CC(CC(C4)C2)C3)n[nH]c1=S` displayed a TGI greater than 100 µM.

The test system of the next assay is SF-268 CNS. In words: NCI tumour cell line growth inhibition, 48 h.
Turning to `CC(=O)OCC1OC(N2C(c3ccccc3)=CC(c3cccs3)C(C#N)=C2S)C(OC(C)=O)C(OC(C)=O)C1OC(C)=O` (stereo not given), the TGI is greater than 100 µM.

Compound `Nn1c(C23CC4CC(CC(C4)C2)C3)n[nH]c1=S` registered a TGI greater than 100 µM.

Regarding `Cc1cn(C2CC(OC(=O)c3ccc(Cl)cc3)C(COC(=O)c3ccc(Cl)cc3)O2)c(=O)[nH]c1=O` (stereo not given), the TGI is greater than 100 µM.

A further assay has as its system SF-295 CNS. In words: NCI tumour cell line growth inhibition, 48 h.
On to `S=C(N/N=C/c1ccccn1)N1CCCCC1`, for which the TGI is greater than 100 µM.

For `CC(=O)OCC1OC(N2C(c3ccccc3)=CC(c3cccs3)C(C#N)=C2S)C(OC(C)=O)C(OC(C)=O)C1OC(C)=O` (stereo not given), the TGI is greater than 100 µM.

Compound `Nn1c(C23CC4CC(CC(C4)C2)C3)n[nH]c1=S` had a TGI greater than 100 µM.

For `Cc1cn(C2CC(OC(=O)c3ccc(Cl)cc3)C(COC(=O)c3ccc(Cl)cc3)O2)c(=O)[nH]c1=O` (stereo not given), the TGI was greater than 100 µM.

For another assay, the system named is SF-539 CNS. The assay is described as follows: NCI tumour cell line growth inhibition, 48 h.
`S=C(N/N=C/c1ccccn1)N1CCCCC1` showed a TGI of 0.749 µM.

In turn, `CC(=O)OCC1OC(N2C(c3ccccc3)=CC(c3cccs3)C(C#N)=C2S)C(OC(C)=O)C(OC(C)=O)C1OC(C)=O` (stereo not given) displayed a TGI greater than 100 µM.

In turn, `Nn1c(C23CC4CC(CC(C4)C2)C3)n[nH]c1=S` had a TGI greater than 100 µM.

For a further assay, the system named is SK-MEL-2 melanoma. The assay is described as follows: NCI tumour cell line growth inhibition, 48 h.
On to `S=C(N/N=C/c1ccccn1)N1CCCCC1`, for which the TGI amounted to 18.1 µM.

`CC(=O)OCC1OC(N2C(c3ccccc3)=CC(c3cccs3)C(C#N)=C2S)C(OC(C)=O)C(OC(C)=O)C1OC(C)=O` (stereo not given) showed a TGI greater than 100 µM.

Compound `Nn1c(C23CC4CC(CC(C4)C2)C3)n[nH]c1=S` gave a TGI greater than 100 µM.
